Measured values taken from publication PMC3109911 (The Journal of neuroscience : the official journal of the …, 2011).
Where a name gives a salt, the structure may show the parent alone.

Experiments:
[1] = test system: D1 receptors; experiment: ERK1/2 phosphorylation in transfected CHO cells expressing D1 receptors
[2] = test system: D5 receptors; experiment: ERK1/2 phosphorylation in transfected CHO cells expressing D5 receptors
[3] = test system: galanin receptor; details: ref Lang et al., 2007; cited from earlier work
[4] = test system: galanin receptor; details: ref Lang et al., 2007; cited from earlier work; remark: listed apart in the source
[5] = test system: Schaffer-CA1 synaptic transmission in rat ventral hippocampal slices; experiment: Field EPSP recordings from ventral hippocampal slices
[6] = test system: D1-like receptors; details: ref Hersi et al., 1995; cited from earlier work
[7] = test system: Schaffer-CA1 synaptic transmission in dorsal hippocampal slices; experiment: Field EPSP recordings from dorsal hippocampal slices; details: SKF 38393 20 nM, n=3

Br.Oc1cc2c(c(Cl)c1O)CCNCC2c1ccccc1 (racemic) [SKF 81297]
ERK1/2 phosphorylation, time course ([1]; SKF 81297 (text 50 nM; Fig. 4 legend 70 nM), cells expressing D1): time-dependently induced ERK1/2 phosphorylation
ERK1/2 phosphorylation, time course ([2]; SKF 81297 50 nM, cells expressing D5): time-dependently induced ERK1/2 phosphorylation

galanin (1–13)-Pro-Pro-(Ala-Leu-)2Ala amide [M40]
agonism in cell lines [3]: full agonists in some cell lines
antagonism in vivo [4]: clearly antagonists in vivo
antagonism of SKF 81297-induced ERK1/2 phosphorylation ([1]; antagonist 10 µM, 20 min prior, SKF 81297 70 nM, 5 min, cells only expressing D1): not modified by the presence of M40
antagonism of SKF 81297-induced ERK1/2 phosphorylation ([2]; antagonist 10 µM, 20 min prior, SKF 81297 70 nM, 5 min, cells only expressing D5): not modified by the presence of M40

CN1[C@@H]2CC[C@H]1C[C@@H](OC(=O)C(CO)c1ccccc1)C2 (some centres unmarked) [atropine]
effect on fEPSP ([5]; atropine 5 µM by itself): did not significantly modify fEPSP

NCCc1ccc(O)c(O)c1 [dopamine]
effect on hippocampal ACh release [6]: facilitates hippocampal ACh release by acting on D1-like receptors

Oc1cc2c(cc1O)C(c1ccccc1)CNCC2 (racemic) [SKF 38393, (±)-1-Phenyl-2,3,4,5-tetrahydro-(1H)-3-benzazepine-7,8-diol hydrobromide]
effect on fEPSP slope [7]: devoid of any effect on fEPSP slope
effect on synaptic transmission (fEPSP) ([5]; SKF 38393 20 nM after atropine (5 µM, at least 30 min before)): did not significantly affect synaptic transmission
effect on the slope of fEPSP ([5]; SKF 38393 20 nM alone, n=7): virtually devoid of effect
